These results are taken from patent US7629317B2, “Control of growth and repair of gastro-intestinal tissues by gastrokines and inhibitors” (The University of Chicago, priority 2001, dated 2009).

Experiment [1] relates to Streptococcus pneumoniae. The experiment is described as follows: Growth of other bacteria and fungi. In kind it is cell-based.
Experiment [2] deals with HAE cells. As to the kind of experiment: Growth of human antrum epithelial (HAE) cells (cell count 4 days later). Type of experiment: cell-based. Here is the method: To measure growth (left panel), HAE cells were plated in 60-mm dishes. Peptide 77-97 (8 μg/ml), or EGF (50 ng/ml), or both were added to the medium and the number of cells counted 4 days later. […] Values are means±SE for 3 cultures. To measure migration (right panel), cells were grown in 60-mm dishes to prepare a confluent monolayer. The medium was aspirated and replaced with fresh medium containing 0.01% calf serum (CS). The monolayer was mechanically wounded by scraping with a razor blade. Detached cells were removed by aspirating medium, and rinsing the remaining cells twice with fresh medium containing 0.01% CS. Fresh medium (5 ml) containing CS (0.01%) and insulin (100 U/L) was added to wounded cultures. Either peptide 77-97 (8 μg/ml), EGF (50 ng/ml), or both were added to duplicate cultures. Migration was assessed at 24, 48 and 72 hr after wounding by measuring the distance (in mm) that cells had migrated from the wound edge using a microscope eyepiece reticle (10-mm long; 0.1-mm markings). Migrating cells at 12 randomly chosen sites along a 0.25-mm stretch of the wound edge were measured at 40-fold magnification. Migration at 2 different sites was measured for each of 2 separate wounds made in each culture. Values are the mean distance cells moved into the denuded area from the edge of 4 different wounds in 2 cultures±SE.
To characterize the capacity of gastric and intestinal cells to respond to AMP-18, AGS gastric adenocarcinoma cells, HAE human gastric antrum mucosa primary cultures transformed with SV40 large T antigen, rat diploid small intestinal epithelial cells of the IEC-6 (FIG. 15) and IEC-18 lines, NCI N-87 gastric carcinoma cells, and SK-GT5 gastroesophageal adenocarcinoma cells were studied; human WI-38 fibroblasts and HeLa cells served as non-GI control cell lines. Mitogenesis was assayed by performing cell counts 3 to 4 days after exposing cells to the agent of interest, trypsinizing the culture to prepare single cells, and confirming this while counting them in a hemocytometer.

In experiment [3] the test system is occludin. The experiment is described as follows: Occludin in mouse colonic mucosa in vivo (immunoblot of NP-40-insoluble fraction). The settings on record: listed as AMP peptide. Here is the method: To look for a systemic effect of treatment with AMP peptide during the development of DSS colitis, body weight was measured. During the first 4 days of DSS administration, body weight changed little in peptide- or vehicle-treated mice. Then DSS was discontinued, the animals were given water to drink (day 0; FIG. 27, right panel), and measurements of weight were continued. […] To better understand how AMP peptide could exert these salutary effects on hematochezia and weight loss in DSS colitis, studies were performed to determine if observations in cultures of C2 cells were also relevant in vivo. Because DSS treatment appeared to injure barrier function in monolayer cultures of C2 cells, assessed as a decrease in TER (FIG. 22) and reduced occludin in the detergent-insoluble fraction (FIG. 36), a question was whether DSS might adversely affect the content of this TJ protein in vivo. Mice (n=10) were given DSS (3%) or water to drink. Four days later animals were killed, the contents of the colon lumen including blood were washed out, and the mucosa was inspected. The colonic epithelial surface of mice given DSS appeared largely intact with no obvious ulcerations or denuded areas. Surface cells of visibly intact mucosa were then collected by scraping with a glass slide. Occludin levels in the NP-40-insoluble fraction were assessed by immunoblotting. […]

Experiment [4] has as its system protein kinase (PK) C zeta (ζ). The experiment is described as follows: Phosphorylation of PKCζ in C2 cells (immunoblotting, confocal microscopy). In kind it is cell-based, human. Conditions: within 20 min. The text has this: To learn more about how AMP peptide could participate in the establishment of TJ structures and epithelial cell polarity during epithelial wound healing, attention was focused on protein kinase (PK) C zeta (ζ), an atypical PKC that appears to be required for assembly of TJs (Suzuki et al., 2001). PKCζ, presumably in its active form phospho-PKCζ, regulates TJs, apparently by interacting with several TJ-associated proteins including occludin, PAR-6, and PAR-3.

“Also recorded” adds a separate entry of the source.

Turning to “LDALVKEKKLQGKGPGGPPPK [97–117, peptide 77-97 of the mature protein, same as 97-117 of the human precursor]”, the “growth of Streptococcus pneumoniae” value in experiment [1] is “did not alter the growth”. Also, the “proliferation together with EGF” value in experiment [2] (peptide 77-97 8 μg/ml + EGF 50 ng/ml) is given as “additive”. Besides, the “proliferation of HAE cells (in words)” value in experiment [2] (peptide 77-97 8 μg/ml, EGF 50 ng/ml, 4 days) was “stimulated proliferation”. In addition, the “amount of β-catenin in colonic mucosal epithelial cells” value in experiment [3] is listed as “did not alter; also recorded: does not alter”. The “phosphorylation of PKCζ” value in experiment [4] is “increase in phosphorylation”.
